Data set [1] has as its system Cyperus serotinus. In words: Table 21 field trial, treatment at the 2 leaf stage: weed control. The format is in vivo. To be noted: 28 days after application. The text has this: (§1) Field trial: Treatment at the 2 leaf stage, evaluation 28 days after the application.
Data set [2] relates to Oryza sativa. In words: Table 21 field trial, treatment at the 2 leaf stage: rice damage. The format is in vivo.
Text: as §1

The test system of a further data set is Sagittaria pygmaea. In words: Table 22 field trial, treatment: 1-2 leaf stage: weed control. It counts as in vivo. To be noted: 28 days after application. The text has this:
Field trial: Treatment: 1-2 leaf stage, evaluation 28 days after the application.

Data set [3] has as its system Oryza sativa. In words: Table 20 field trial, treatment at the 4-6 leaf stage: rice damage. It counts as in vivo. The conditions noted are these: 28 days after application. The source says: (§2) Field trial: Treatment at the 4-6 leaf stage, evaluation 28 days after the application.
The test system of another data set is Ipomoea hederacea. In words: Table 20 field trial, treatment at the 4-6 leaf stage: weed control. It counts as in vivo. To be noted: 28 days after application.
Text: as §2

Data set [4] concerns Echinochloa crusgalli. In words: Table 18 field trial, treatment at the 1-2 leaf stage: weed control. The format is in vivo. To be noted: 14 days after application. The source says: (§3) Field trial: Treatment at the 1-2 leaf stage, evaluation 14 days after the application.
Data set [5] relates to Oryza sativa. In words: Table 4 field trial: rice damage.
Method: (§8) The examples mentioned below were carried out in the greenhouse, and in some instances, in field trials.
Data set [6] concerns Oryza sativa. In words: Table 18 field trial, treatment at the 1-2 leaf stage: rice damage. It counts as in vivo. The conditions noted are these: 14 days after application.
Text: as §3

Data set [7] has as its system Echinochloa crusgalli. In words: Table 4 field trial: weed control. The format is in vivo.
Method: as §8
For data set [8], the system named is Oryza sativa. In words: Table 25 field trial, treatment at the 3 leaf stage: rice damage. It counts as in vivo. To be noted: 33 days after application. The text has this: (§4) Field trial: Treatment at the 3 leaf stage, evaluation 33 days after the application.
A further data set relates to Polygonum convolvulus. In words: Table 25 field trial, treatment at the 3 leaf stage: weed control. The conditions noted are these: 33 days after application. The format is in vivo.
Text: as §4

The test system of data set [9] is Cyperus serotinus. In words: Table 19 field trial, treatment at the 2 leaf stage: weed control. It counts as in vivo. The conditions noted are these: 14 days after application. The source says:
(§5) Field trial: Treatment at the 2 leaf stage, evaluation 14 days after the application.

Data set [10] concerns Oryza sativa. In words: Table 19 field trial, treatment at the 2 leaf stage: rice damage. It counts as in vivo. To be noted: 14 days after application.
Text: as §5

The subject of the next data set is Commelina benghalensis. In words: Table 26 field trial, treatment at the 3 leaf stage: weed control. The conditions noted are these: 33 days after application. The format is in vivo.
Text: as §4

Data set [11] relates to Oryza sativa. In words: Table 26 field trial, treatment at the 3 leaf stage: rice damage. The format is in vivo. To be noted: 33 days after application.
Text: as §4

Data set [12] deals with Oryza sativa. In words: Table 12 greenhouse trial, treatment at the 1-2 leaf stage: rice damage. It counts as in vivo. The conditions noted are these: greenhouse trial, 20 days after application. On the procedure: (§6) Seeds or rhizome pieces of mono- and dicotyledonous weed plants are placed into sandy loam soil in plastic pots, covered with soil and grown in a greenhouse under good growth conditions (temperature, atmospheric humidity, water supply). Weeds which are encountered in the cultivation of rice are cultivated in pots in which the water level is up to 2 cm over the soil surface. Three weeks after sowing, the test plants are treated at the three-leaf stage. The active compound combinations according to the invention, formulated as wettable powders or emulsion concentrates, and, in parallel experiments, the correspondingly formulated individual active compounds are sprayed onto the green parts of the plants at different dosages using an amount of water of 300 to 600 l/ha (converted), and, after about 3 to 4 weeks of the test plants in the greenhouse under optimum growth conditions (temperature, atmospheric humidity, water supply), the effect of the preparations is evaluated visually in comparison to untreated controls. In the case of rice or weeds which are encountered in the cultivation of rice, the active compounds are also added directly to the water for irrigation (application analogous to the so-called granules application) or sprayed onto plants and added to the water for irrigation. The experiments were designed with several, up to five, repetitions. The herbicidal compositions according to the invention also have good herbicidal post-emergence activity against a broad spectrum of economically important weed grasses and broad-leaved weeds.
(§7) Greenhouse trial: Treatment at the 1-2 leaf stage, evaluation 20 days after the application.

Data set [13] relates to Cyperus serotinus. In words: Table 12 greenhouse trial, treatment at the 1-2 leaf stage: weed control. It counts as in vivo. The conditions noted are these: 20 days after application. As for the experimental part:
as §6, §7

In data set [14] the test system is Oryza sativa. In words: Table 2 field trial, treatment at the 1-2 leaf stage rice: rice damage. To be noted: 28 days after application.
Method: as §8
The subject of the next data set is ECHCO. In words: Table 2 field trial, treatment at the 2-3 leaf stage weed grasses: weed control. The format is in vivo, Echinochloa colona. To be noted: 28 days after application.
The test system of the next data set is Leptochloa filiformis. In words: Table 2a field trial, treatment at the 2-3 leaf stage weed grasses: weed control. To be noted: 28 days after application. The format is in vivo.
The subject of the next data set is Cyperus irria. In words: Table 3 field trial, treatment at the 2 leaf stage weed grasses: weed control. The format is in vivo. The conditions noted are these: 28 days after application.
Data set [15] has as its system Oryza sativa. In words: Table 2a field trial, treatment at the 1-2 leaf stage rice: rice damage. To be noted: 28 days after application.
Method: as §8
In the next data set the test system is Eleusine indica. In words: Table 2 field trial, treatment at the 2-3 leaf stage weed grasses: weed control. It counts as in vivo. The conditions noted are these: 28 days after application.
Data set [16] deals with Oryza sativa. In words: Table 3 field trial, treatment at the 4-5 leaf stage (seed rice): rice damage. To be noted: 28 days after application.
Method: as §8

Consider 15 compounds from patent US6864217B2, “Herbicidal compositions with substituted phenylsulfonylureas for controlling weeds in rice” (Hoechst Schering AgrEvo GmbH, priority 1998, dated 2005).

Method for Cyperus irria: as §8
Method for ECHCO: as §8
Method for Eleusine indica: as §8
Method for Leptochloa filiformis: as §8

Take `CCC1(CC2(c3cccc(Cl)c3)CO2)C(=O)c2ccccc2C1=O` (racemic) [B71), (RS)-2-[2-(3-chlorophenyl)-2,3-epoxypropyl]-2-ethyl-indane-1,3-dione]: the CYPSE % control in the data set on Cyperus serotinus [1] (150 g of ai/ha) worked out at 55%. For the same compound, the ORYSW % damage in the data set with Oryza sativa [2] (in vivo) is listed as 4%.

With `CN(C(=O)COc1nc2ccccc2s1)c1ccccc1` [B5), 2-(2-benzothiazolyloxy)-N-methyl-N-phenylacetamide], the SAGPY % control in the data set with Sagittaria pygmaea (600 g of ai/ha), in the data set on Sagittaria pygmaea (1200 g of ai/ha) and with Sagittaria pygmaea (2400 g of ai/ha) was 0% throughout.

In the data set on Cyperus serotinus [1] (3000 g of ai/ha), `CC(C)(SC(=O)N1CCCCC1)c1ccccc1` [B9), S-(1-methyl-1-phenylethyl)1-piperidincarbothioate] registered a CYPSE % control of 45%. In the data set on Oryza sativa [2] (3000 g of ai/ha, field trial, 28 days after application), this compound had an ORYSW % damage of 5%.

In the case of `CCSC(=O)N1CCCCCC1` [B10), S-ethyl hexahydro-1H-azepin-1-carbothioate], the ORYSW % damage with Oryza sativa [3] (4480 g of ai/ha) is 0%. The same compound displayed an IPOHE % control in the data set with Ipomoea hederacea (4480 g of ai/ha) of 55%.

In the data set on Oryza sativa [3] (3300 g of ai/ha), `CCN(CC)C(=O)SCc1ccc(Cl)cc1` [B11), S-[(4-chlorophenyl)methyl]diethylcarbamothioate] returned an ORYSW % damage of 3%. The compound also had an IPOHE % control in the data set on Ipomoea hederacea (3300 g of ai/ha) of 43%.

On to `COc1cccc(N(C)C(=S)Oc2cccc(C(C)(C)C)c2)n1` [B12), O-[3-(1,1-dimethylethyl)phenyl](6-methoxy-2-pyridinyl)methylcarbamothioate], for which, in the data set with Cyperus serotinus [1] (600 g of ai/ha), the CYPSE % control worked out at 65%. In the data set on Oryza sativa [2] (600 g of ai/ha, field trial, 28 days after application), the ORYSW % damage is on record as 3%.

As to `C[C@@H](Oc1ccc(Oc2nc3ccc(Cl)cc3o2)cc1)C(=O)O` [B20), (R)-2-[4-(6-chloro-1,3-benzoxazol-2-yloxy)phenoxy]-propionic acid], the ECHCG % control was 75% with Echinochloa crusgalli [4] (30 g of ai/ha), 0% in the data set on Echinochloa crusgalli [7] (10 g of ai/ha) and 0% with Echinochloa crusgalli [7] (20 g of ai/ha). Further, the ORYSW % damage in the data set on Oryza sativa [5] (10 g of ai/ha), in the data set on Oryza sativa [5] (20 g of ai/ha) and in the data set on Oryza sativa [6] (30 g of ai/ha) was 0% in each case.

With `CSC(=O)c1c(C(F)F)nc(C(F)(F)F)c(C(=O)SC)c1CC(C)C` [B24), S,S′-dimethyl-2-(difluoromethyl)-4-(2-methylpropyl)-6-(trifluoromethyl)-3,5-pyridindicarbothioate], the CYPSE % control in the data set with Cyperus serotinus [1] (60 g of ai/ha) is listed as 60%. For the same compound, the ORYSW % damage in the data set with Oryza sativa [2] (in vivo) is recorded as 6%.

For `COc1c(Cl)ccc(Cl)c1C(=O)O` [B31), 3,6-dichloro-o-anisic acid], the ORYSW % damage in the data set on Oryza sativa [8] (240 g of ai/ha) was 8%; in the data set with Oryza sativa [8] (480 g of ai/ha), 10%. Further, the POLCO % control in the data set on Polygonum convolvulus (240 g of ai/ha) is 45%; in the data set with Polygonum convolvulus (480 g of ai/ha) it was 80%.

As for `C#CCN(C)c1c(C#N)cnn1-c1nn2c(c1Cl)CCCC2` [B33b)], the results for the CYPSE % control in the data set with Cyperus serotinus [9] (100 g of ai/ha), with Cyperus serotinus [9] (200 g of ai/ha) and in the data set with Cyperus serotinus [9] (400 g of ai/ha) were 40%, 50% and 80%, respectively. For the same compound, the ORYSW % damage is 6% with Oryza sativa [10] (100 g of ai/ha), 8% with Oryza sativa [10] (200 g of ai/ha) and 12% in the data set on Oryza sativa [10] (400 g of ai/ha).

For the compound `O=C(O)COc1nc(Cl)c(Cl)cc1Cl` [B40), [(3,5,6-trichloro-2-pyridinyl)oxy]acetic acid], in the data set with Oryza sativa [3] (420 g of ai/ha), the ORYSW % damage came to 20%. Besides, the IPOHE % control in the data set on Ipomoea hederacea (420 g of ai/ha) turned out to be 65%.

`COc1nc(C)nc(NC(=O)NS(=O)(=O)c2ccccc2C(=O)O)n1` [B57), 2-(4-methoxy-6-methyl-1,3,5-triazin-2-ylcarbamoyl-sulfamoyl)benzoic acid]: the COMBE % control in the data set with Commelina benghalensis (1 g of ai/ha) was 20%; in the data set on Commelina benghalensis (2 g of ai/ha), 68%. Besides, the ORYSW % damage with Oryza sativa [11] (1 g of ai/ha) and in the data set with Oryza sativa [11] (2 g of ai/ha) was 0% throughout.

For the compound `COCCOc1ccccc1S(=O)(=O)NC(=O)Nc1nc(OC)nc(OC)n1` [B60), N-[[(4,6-dimethoxy-1,3,5-triazin-2-yl)amino]carbonyl]-2-(2-methoxyethoxy)benzolsulfonamide], the ORYSW % damage with Oryza sativa [12] (15 g of ai/ha) is recorded as 0%; in the data set with Oryza sativa [12] (30 g of ai/ha) it was 0%; with Oryza sativa [12] (60 g of ai/ha) it was 5%. The CYPSE % control with Cyperus serotinus [13] (15 g of ai/ha) is listed as 0%; with Cyperus serotinus [13] (30 g of ai/ha), 15%; with Cyperus serotinus [13] (60 g of ai/ha), 15%.

Take `CCOc1ccccc1OS(=O)(=O)NC(=O)Nc1nc(OC)cc(OC)n1` [B63a), ethoxysulfuron]: the ORYSW % damage in the data set on Oryza sativa [14] (45 g of ai/ha) amounted to 10%; with Oryza sativa [14] (60 g of ai/ha) it was 10%; in the data set on Oryza sativa [15] (45 g of ai/ha), 10%; in the data set on Oryza sativa [15] (60 g of ai/ha), 10%; in the data set on Oryza sativa [16] (22.5 g of ai/ha), 0%; in the data set on Oryza sativa [16] (45 g of ai/ha), 0%. The ORYSW % damage in the data set on Oryza sativa [6] (5 g of ai/ha) and in the data set on Oryza sativa [6] (10 g of ai/ha) was 7% each time. For the same compound, the ECHCO % control in the data set with ECHCO (45 g of ai/ha) and in the data set on ECHCO (60 g of ai/ha) was 0% each time. The LEFFI % control in the data set on Leptochloa filiformis (45 g of ai/ha) and with Leptochloa filiformis (60 g of ai/ha) was 0% in each case. Also, the results for the CYPIR % control in the data set with Cyperus irria (22.5 g of ai/ha) and with Cyperus irria (45 g of ai/ha) were 60% and 95%, respectively. The ELEIN % control in the data set on Eleusine indica (45 g of ai/ha) and in the data set with Eleusine indica (60 g of ai/ha) was 0% in each case. The ECHCG % control in the data set on Echinochloa crusgalli [4] (5 g of ai/ha) and with Echinochloa crusgalli [4] (10 g of ai/ha) was 7% each time.

On to `CC(C)=C1OC(=O)N(c2cc(OC3CCCC3)c(Cl)cc2F)C1=O` [B70), 3-(4-chloro-5-cyclopentyloxy-2-fluorophenyl)-5-iso-propylidene-1,3-oxazolidine-2,4-dione], for which the CYPSE % control with Cyperus serotinus [9] (150 g of ai/ha) was found to be 50%; in the data set with Cyperus serotinus [9] (450 g of ai/ha) it was 65%. The ORYSW % damage in the data set with Oryza sativa [10] (150 g of ai/ha) and with Oryza sativa [10] (450 g of ai/ha) was 0% in each case.
